For one series, the target named is PAF binding sites (Homo sapiens, UniProt P25105). Briefly: displacement of [^3 H]PAF from PAF binding sites. The following applies: 0.01, 0.1, 1 and 10 μM tested, 0.5% DMSO. The procedure:
(§1) Compound 1494 was assayed for a variety of inhibitory activities. […] Displacement of [^3 H]pyrilamine from histamine H1 binding sites (IC50 of about 3 μM) was noted, but may be unrelated to functional receptor agonism or antagonism. Displacement of [3H]dexamethasone from glucocorticoid binding sites (IC50 of about 3 μM) was also observed. Inhibition of the following activities was also detected: […]

For another series, the target named is Phospholipase A2. Briefly: inhibition of Phospholipase A2. The note with it: 0.5% DMSO. It counts as biochemical. The procedure: as §1
Series [1] has as its target T1, glucocorticoid binding sites (Homo sapiens, UniProt P04150).
T1 sequence (P04150 1-777): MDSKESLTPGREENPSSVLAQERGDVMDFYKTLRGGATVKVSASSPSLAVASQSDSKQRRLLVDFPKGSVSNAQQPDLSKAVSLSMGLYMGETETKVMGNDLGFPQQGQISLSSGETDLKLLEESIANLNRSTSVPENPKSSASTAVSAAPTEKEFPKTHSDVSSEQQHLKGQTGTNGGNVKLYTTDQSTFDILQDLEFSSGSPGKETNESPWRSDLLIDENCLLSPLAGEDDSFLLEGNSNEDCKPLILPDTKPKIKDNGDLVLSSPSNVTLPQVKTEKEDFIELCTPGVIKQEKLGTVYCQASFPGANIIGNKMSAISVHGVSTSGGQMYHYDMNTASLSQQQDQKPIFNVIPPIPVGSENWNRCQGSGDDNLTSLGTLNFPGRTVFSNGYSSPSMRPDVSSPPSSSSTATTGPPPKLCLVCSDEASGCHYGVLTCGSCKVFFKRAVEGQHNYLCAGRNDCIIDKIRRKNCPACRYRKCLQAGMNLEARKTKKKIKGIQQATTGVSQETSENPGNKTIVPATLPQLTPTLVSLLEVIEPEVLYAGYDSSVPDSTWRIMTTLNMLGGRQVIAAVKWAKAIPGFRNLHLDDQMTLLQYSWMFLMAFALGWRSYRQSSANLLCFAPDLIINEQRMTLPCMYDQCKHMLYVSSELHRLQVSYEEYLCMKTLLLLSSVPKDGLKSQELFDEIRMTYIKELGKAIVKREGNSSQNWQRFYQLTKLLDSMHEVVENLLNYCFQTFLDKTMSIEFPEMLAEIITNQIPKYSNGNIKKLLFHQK
Briefly: displacement of [3H]dexamethasone from glucocorticoid binding sites. The note with it: 0.01, 0.1, 1 and 10 μM tested, 0.5% DMSO. As for the experimental part: as §1
(In general: In a radioligand displacement assay an active substance lowers the binding of a labelled ligand.)

The next series has as its target P56^lck tyrosine kinase (Homo sapiens, UniProt P06239). Briefly: inhibition of P56^lck tyrosine kinase. The note with it: 0.5% DMSO. The class given is biochemical. As for the experimental part: as §1
The subject of series [2] is de novo PAF-acetyltransferase. Briefly: inhibition of de novo PAF-acetyltransferase (de novo pathway of PAF synthesis). It counts as biochemical.
Another series deals with T2, 5-lipoxygenase (Homo sapiens, UniProt P09917).
T2 sequence (P09917 1-674): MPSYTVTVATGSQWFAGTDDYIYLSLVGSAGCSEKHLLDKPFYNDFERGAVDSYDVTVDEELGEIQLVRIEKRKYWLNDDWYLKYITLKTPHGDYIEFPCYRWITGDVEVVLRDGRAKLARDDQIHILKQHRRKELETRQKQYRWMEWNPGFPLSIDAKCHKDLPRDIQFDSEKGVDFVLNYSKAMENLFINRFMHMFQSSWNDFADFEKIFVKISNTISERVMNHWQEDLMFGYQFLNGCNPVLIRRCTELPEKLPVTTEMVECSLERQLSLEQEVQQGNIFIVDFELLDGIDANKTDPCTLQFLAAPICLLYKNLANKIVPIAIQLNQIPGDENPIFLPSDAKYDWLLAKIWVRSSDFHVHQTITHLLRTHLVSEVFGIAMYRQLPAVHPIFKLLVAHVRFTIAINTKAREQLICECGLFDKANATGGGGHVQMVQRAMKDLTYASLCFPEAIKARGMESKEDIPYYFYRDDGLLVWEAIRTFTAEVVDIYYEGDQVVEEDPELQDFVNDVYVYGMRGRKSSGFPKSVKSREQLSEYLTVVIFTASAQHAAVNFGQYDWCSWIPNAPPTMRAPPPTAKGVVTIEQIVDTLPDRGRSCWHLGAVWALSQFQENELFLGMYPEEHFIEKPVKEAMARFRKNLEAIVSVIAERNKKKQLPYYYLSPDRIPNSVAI
Kind of series: inhibition of 5-lipoxygenase. It counts as biochemical. The following applies: 0.5% DMSO. The procedure: as §1

A further series concerns the target P59^fyn tyrosine kinase (Homo sapiens, UniProt P06241). Briefly: inhibition of P59^fyn tyrosine kinase. The class given is biochemical. The note with it: 0.5% DMSO. The procedure:
as §1

In the next series the target is EGF tyrosine kinase (Homo sapiens, UniProt P00533). Briefly: inhibition of EGF tyrosine kinase. The class given is biochemical. The note with it: 0.5% DMSO. The procedure: as §1
Chain of EGF tyrosine kinase (P00533 25-1210): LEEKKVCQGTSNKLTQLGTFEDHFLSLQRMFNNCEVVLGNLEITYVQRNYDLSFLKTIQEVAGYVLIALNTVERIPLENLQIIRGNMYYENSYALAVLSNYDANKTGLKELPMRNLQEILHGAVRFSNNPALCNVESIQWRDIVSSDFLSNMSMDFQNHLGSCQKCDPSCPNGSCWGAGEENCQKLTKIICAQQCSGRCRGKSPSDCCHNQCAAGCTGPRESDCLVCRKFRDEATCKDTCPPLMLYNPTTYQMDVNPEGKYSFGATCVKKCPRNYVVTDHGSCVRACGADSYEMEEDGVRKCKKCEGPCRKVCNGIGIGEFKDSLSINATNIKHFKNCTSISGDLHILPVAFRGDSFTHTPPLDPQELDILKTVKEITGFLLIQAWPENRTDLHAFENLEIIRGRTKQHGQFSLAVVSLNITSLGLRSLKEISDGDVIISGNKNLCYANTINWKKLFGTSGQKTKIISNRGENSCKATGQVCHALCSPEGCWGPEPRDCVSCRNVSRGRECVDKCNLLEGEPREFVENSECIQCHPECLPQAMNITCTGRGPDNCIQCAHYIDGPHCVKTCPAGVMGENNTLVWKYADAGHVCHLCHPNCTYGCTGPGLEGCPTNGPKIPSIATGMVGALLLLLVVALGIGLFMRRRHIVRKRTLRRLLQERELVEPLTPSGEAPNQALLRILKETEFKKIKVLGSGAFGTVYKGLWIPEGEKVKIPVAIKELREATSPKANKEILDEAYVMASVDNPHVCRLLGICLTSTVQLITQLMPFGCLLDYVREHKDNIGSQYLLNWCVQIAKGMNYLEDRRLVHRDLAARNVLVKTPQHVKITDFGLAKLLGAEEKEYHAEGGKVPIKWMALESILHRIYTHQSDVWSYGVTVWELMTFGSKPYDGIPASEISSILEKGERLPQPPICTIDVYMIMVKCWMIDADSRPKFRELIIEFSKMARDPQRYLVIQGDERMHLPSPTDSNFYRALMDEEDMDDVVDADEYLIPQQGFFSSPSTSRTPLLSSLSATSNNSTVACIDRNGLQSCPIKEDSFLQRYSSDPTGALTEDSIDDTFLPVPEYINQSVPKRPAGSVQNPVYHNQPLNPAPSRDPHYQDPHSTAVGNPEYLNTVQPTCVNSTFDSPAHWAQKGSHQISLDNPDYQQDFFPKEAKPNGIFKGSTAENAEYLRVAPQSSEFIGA
The nature of the next series: solubility in 0.5% DMSO. The class given is physicochemical. The following applies: at 0.01, 0.1, 1 and 10 μM.
Series [3] concerns the target histamine H1 binding sites (Homo sapiens, UniProt P35367). Briefly: displacement of [^3 H]pyrilamine from histamine H1 binding sites. The following applies: 0.01, 0.1, 1 and 10 μM tested, 0.5% DMSO. As for the experimental part:
as §1

The test system of series [4] is remodeling PAF-acetyltransferase. Kind of series: inhibition of remodeling PAF-acetyltransferase (remodeling pathway of PAF synthesis). The class given is biochemical. An excerpt: A second screening assay detects modulators of the formation of PAF from lyso-PAF and acetyl-CoA by an enzyme termed PAF acetyltransferase. This is the second step in the remodeling pathway of PAF synthesis, described by Wykle, J. Biol. Chem. 255:10256-60, 1980.
The remodeling pathway of PAF synthesis is the pathway involved in pathological processes, such as inflammation, and particularly in neutrophil-mediated processes. The de novo pathway of PAF synthesis is required for normal physiological functions. Therefore, a desirable, anti-inflammatory, therapeutically effective PAF modulator will down-regulate the remodeling pathway, but will have little or no effect on the de novo pathway of PAF synthesis.
Briefly, to assay the remodeling pathway acetyl-transferase, […] of […] bovine serum albumin (fatty acid free; Sigma) in PBS (120 mM NaCl, 2.7 mM KCl, 10 mM phosphate buffer, pH 7.4, supplemented with 10 μM CaCl2) was added to each well of a 96-well, flat-bottom microtiter plate. The plate was incubated for 15 min at ambient temperature, then the wells were aspirated and 50 μl of PBS was added to each well. Duplicate or triplicate test samples in DMSO (≤5% (v/v)) were added to each well.
HL-60 cells (a stable, transformed hematopoietic cell line) were combined with PBS containing 0.05% TWEEN-20 and mixed vigorously at 500 rpm for 30 sec. This treatment permeabilized the HL-60 cells. An aliquot (50 μl) of HL-60 lysate so formed was added to each well of the plate, and the plate was incubated for 5 min at ambient temperature with gentle shaking.
PAF acetyl-transferase substrates were added to each well, such that 25 μl of the following solution was added per well: Lyso-PAF ([…]; Calbiochem, La Jolla, Calif.), acetyl-CoA ([…]; Calbiochem), and ^3 H-acetyl-CoA (25 μCi/ml; Amersham). The plate was gently mixed for 45 sec and then incubated at 37° C. for 20 min.
Newly synthesized PAF was extracted by adding 1.25 mg of AMBERCHROM CG-71 resin (Supelco, Bellefonte, Pa.) in 25 μl of distilled water to each well. The plate was gently shaken for 1 min, following which the resin was collected on a 102 mm×258 mm glass-fiber filter using a MICRO-CELL HARVESTER (Skatron, Waltham, Mass.). The filter was washed with 500 ml water to remove unincorporated ^3 H-acetyl-CoA. Following the wash, the filter was dried in a microwave oven for 5-10 min.
After the filter was dried, it was soaked in 10 ml of Beta Plate scintillation fluid (LKB, Loughborough, England), and bound counts were determined in a TOP COUNT scintillation counter (Pharmacia). Percentage inhibition was determined by dividing the average of 2 or 3 replicate wells by the average of 3 control wells (5% DMSO alone), and multiplying by 100.

The subject of the next series is B cell. Kind of series: B cell proliferation in the presence of LPS. The class given is cell-based.
The target in a further series is Cyclooxygenase. Briefly: inhibition of Cyclooxygenase. The note with it: 0.5% DMSO. The class given is biochemical. The procedure:
as §1

Another series concerns T cell. Kind of series: T cell proliferation in the presence of ConA. The class given is cell-based.

The values that follow come from patent publication US5550148A, “PAF synthesis modulators” (ZymoGenetics, Inc., priority 1995, dated 1996).

Chain of histamine H1 binding sites (P35367 whole entry): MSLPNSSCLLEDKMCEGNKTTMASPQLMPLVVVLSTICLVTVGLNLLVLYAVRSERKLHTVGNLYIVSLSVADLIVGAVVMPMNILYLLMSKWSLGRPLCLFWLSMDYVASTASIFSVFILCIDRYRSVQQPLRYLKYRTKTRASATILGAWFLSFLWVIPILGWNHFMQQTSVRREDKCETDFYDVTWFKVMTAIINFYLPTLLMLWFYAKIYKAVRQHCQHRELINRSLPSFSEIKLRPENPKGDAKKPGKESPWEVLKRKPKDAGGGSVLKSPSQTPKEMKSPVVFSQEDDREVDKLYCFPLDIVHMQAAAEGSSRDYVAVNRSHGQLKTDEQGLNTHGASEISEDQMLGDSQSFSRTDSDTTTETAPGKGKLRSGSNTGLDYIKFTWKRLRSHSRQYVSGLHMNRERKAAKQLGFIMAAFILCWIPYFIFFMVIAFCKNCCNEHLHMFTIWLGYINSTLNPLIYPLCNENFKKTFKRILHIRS
Chain of P59^fyn tyrosine kinase (P06241 whole entry): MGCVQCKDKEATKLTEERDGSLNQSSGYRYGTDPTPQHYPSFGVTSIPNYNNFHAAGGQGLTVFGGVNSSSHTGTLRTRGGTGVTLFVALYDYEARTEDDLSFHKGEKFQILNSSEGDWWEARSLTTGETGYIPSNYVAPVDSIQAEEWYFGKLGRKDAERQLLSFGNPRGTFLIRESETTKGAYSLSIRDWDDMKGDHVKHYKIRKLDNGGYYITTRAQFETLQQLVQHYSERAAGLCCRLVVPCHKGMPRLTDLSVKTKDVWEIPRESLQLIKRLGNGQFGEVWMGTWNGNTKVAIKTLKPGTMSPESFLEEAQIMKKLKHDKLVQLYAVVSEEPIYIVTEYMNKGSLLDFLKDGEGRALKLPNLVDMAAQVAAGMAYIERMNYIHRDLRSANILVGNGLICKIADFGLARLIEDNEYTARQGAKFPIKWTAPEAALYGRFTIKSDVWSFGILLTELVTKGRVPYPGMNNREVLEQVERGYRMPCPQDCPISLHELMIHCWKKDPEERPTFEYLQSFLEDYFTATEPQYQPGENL
Chain of PAF binding sites (P25105 whole entry): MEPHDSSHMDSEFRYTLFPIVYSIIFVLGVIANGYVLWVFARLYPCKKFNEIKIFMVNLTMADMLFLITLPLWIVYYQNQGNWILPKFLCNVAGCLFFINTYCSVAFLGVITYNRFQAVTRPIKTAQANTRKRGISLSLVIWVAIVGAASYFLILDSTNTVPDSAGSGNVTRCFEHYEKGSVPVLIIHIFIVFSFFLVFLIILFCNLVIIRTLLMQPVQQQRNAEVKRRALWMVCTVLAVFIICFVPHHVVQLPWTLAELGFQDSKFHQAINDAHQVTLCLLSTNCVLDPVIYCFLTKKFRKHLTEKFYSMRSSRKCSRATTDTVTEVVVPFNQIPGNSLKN
Chain of P56^lck tyrosine kinase (P06239 whole entry): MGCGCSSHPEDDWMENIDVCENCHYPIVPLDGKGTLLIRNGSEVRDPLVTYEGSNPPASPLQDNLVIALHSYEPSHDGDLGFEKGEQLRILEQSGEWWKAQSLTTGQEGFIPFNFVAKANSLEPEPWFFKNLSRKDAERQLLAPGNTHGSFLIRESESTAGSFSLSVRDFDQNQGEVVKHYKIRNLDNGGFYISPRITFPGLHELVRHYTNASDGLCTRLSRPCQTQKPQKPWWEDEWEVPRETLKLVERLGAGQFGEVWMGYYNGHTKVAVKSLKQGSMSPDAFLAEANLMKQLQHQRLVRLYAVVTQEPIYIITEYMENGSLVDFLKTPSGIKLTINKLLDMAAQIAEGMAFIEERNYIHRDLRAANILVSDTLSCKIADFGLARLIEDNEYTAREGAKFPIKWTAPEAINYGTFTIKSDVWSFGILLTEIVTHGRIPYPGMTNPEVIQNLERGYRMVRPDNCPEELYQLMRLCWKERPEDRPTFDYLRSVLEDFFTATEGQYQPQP

Regarding `CCC(C)C=C(C)C1C(C)=CC2(C)CC(C)CCC2C1C(=O)C1=CC(O)(Cc2ccc(O)cc2)NC1=O` (centres unmarked) [Compound 1494], the IC50 (commonly the point on the concentration scale where inhibition reaches its midpoint) is around 3 µM on PAF binding sites; around 100 µM at Phospholipase A2; around 3 µM in series [1]; around 3 µM against P56^lck tyrosine kinase; around 10 µM at 5-lipoxygenase; around 3 µM on P59^fyn tyrosine kinase. In addition, the IC50 was around 3 µM at EGF tyrosine kinase, around 3 µM in [3] and around 300 µM at Cyclooxygenase. For the same compound, the “inhibition of de novo PAF-acetyltransferase” value in series [2] (0.1 to 8.3 μg/well) was “no significant inhibition”. In the series “solubility in 0.5% DMSO”, the solubility entry is given as “partial solubility”. The figures for the “inhibition of remodeling PAF-acetyltransferase” value in [4] (0.1 μg/well), in series [4] (8.3 μg/well) and in [4] (25 μg/well) were “about 12%”, “about 71%” and “about 65%”, respectively. Moreover, the “selectivity for the remodeling pathway of PAF synthesis” value in series [4] (versus de novo PAF-acetyltransferase) is on record as “selective modulator of the remodeling pathway of PAF synthesis”. Further, in the series on B cell, the B cell proliferation result was “stimulated B cell proliferation”. Moreover, in the series with T cell, the T cell proliferation entry is “T cell proliferation”.

As to `CCC(C)C=C(C)C1C(C)=CC2(C)CC(C)CC(C)C2C1C(=O)C1=CC(O)(Cc2ccc(O)cc2)NC1=O` (centres unmarked) [Compound 2158], the “inhibition of de novo PAF-acetyltransferase” value in series [2] (0.1 to 25 μg/well) is recorded as “No significant inhibition”. Moreover, the results for the “inhibition of remodeling PAF-acetyltransferase” value in [4] (25 μg/well) and in [4] (0.9 to 0.1 μg/well) were 59% and 0%, respectively.
